Test results reported in patent US6482802B1 (Endowment for Research in Human Biology, Inc., priority 1998, dated 2002).
Where “and” joins values, the source holds several entries; their conditions need not be identical. Equal entries are not always repeated.

Columns and labels:
Human angiogenin = biological target: T1, Human angiogenin (Homo sapiens, UniProt P03950); assay: Ribonucleolytic activity of angiogenin, yeast tRNA substrate; type: biochemical
T1 construct: made in house; host or cells: Escherichia coli
T1 sequence (P03950 with tags, fused parts or gaps): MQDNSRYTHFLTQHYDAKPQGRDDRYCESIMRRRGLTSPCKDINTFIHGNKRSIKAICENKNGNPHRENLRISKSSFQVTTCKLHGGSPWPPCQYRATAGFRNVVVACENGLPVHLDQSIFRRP
Experimental: After incubation for 2 hr at 37° C., […] of 3.4% ice-cold perchloric acid was added, the mixture was vortexed, kept on ice for […] and centrifuged at 15,000×g for 10 min at 4° C. The absorbance of the supernatants was measured at 260 nm.

[1] = tested on: chorioallantoic membrane (CAM) of chick embryos; assay: CAM assay, angiogenin-induced angiogenesis; type: in vivo; settings: for % Positive (angiogenic response): angiogenin alone 55, water 20
Experimental: (§1) Angiogenesis was measured on the CAM by the method of Knighton et al. (Knighton et al., 1977, Br. J. Cancer 35:347-356) essentially as described (Fett et al., 1985, Biochemistry 24:5480-5486). Fertilized chicken eggs were kept at 18° C. for 2 days and then incubated in a humidified environment at 37° C. for 3 days. Albumin was aspirated from the embryos and after 24 hours, a “window” was cut through the shell and covered with clear tape. […] After 48-68 hours at 37° C., the growth of blood vessels was observed microscopically and recorded as either positive or negative. A positive response (i.e., an angiogenic response) has a typical “spokewheel” appearance.

[2] = tested on: chorioallantoic membrane (CAM) of chick embryos; assay: CAM assay, neomycin alone without angiogenic factor; type: in vivo
Experimental: as §1

[3] = tested on: chorioallantoic membrane (CAM) of chick embryos; assay: CAM assay, aFGF-induced angiogenesis; type: in vivo; settings: for % Positive: aFGF alone 73, water 21
Experimental: as §1

HUVE cells [4] = assay: VEGF-induced proliferation of HUVE cells; type: cell-based, human; settings: for VEGF Cell No.: VEGF 5 ng/ml, 48 hrs, 0 μM: 45100 ± 200
Experimental: (§2) The cells were incubated at 37° C. under humidified air containing 5% CO2 for 48 hrs. […] Cell numbers were determined with a Coulter counter.

[5] = tested on: PC-3 human prostate tumor cells
From the text: Mice were examined daily by palpation for the first sign of tumor appearance at which time tumor size was estimated twice weekly by caliper measurements (longest perpendicular length and width).

[6] = tested on: MDA-MB-435 human breast tumor cells; type: in vivo
Experimental: MDA-MA-435 human breast tumor cells, which are estrogen receptor negative, were injected directly into the mammary fat pad of athymic mice. Age-matched athymic female mice were assigned to treatment groups of 8 mice each and anesthetized with ketamine (212 mg/kg body weight) and xylazine (21.2 mg/kg body weight) given intraperitoneally and allowed to stabilize under anesthesia for 15 min. A heating pad was used to maintain their body temperature throughout the procedure to minimize stress. Betadine followed by 70% alcohol was swabbed onto the skin of the left lateral thorax. An incision of 6 mm in length was made through the skin in the area of the left lateral thorax behind the left front leg and the mammary fat pad was exposed by using gentle pressure with two fingers to separate the skin at the incision site. MDA-MB-435 human breast tumor cells were harvested by trypsinization, washed in HBSS, counted using trypan blue exclusion to determine cell viability, and 10,000 cells in a total volume of 20 μl were injected into the fat pad using a 27 gauge needle. The incision was closed with 2 drops of Vetbond veterinarian tissue adhesive and the mouse was allowed to recover on the heating pad before returning to its cage. […] Mice were examined daily for tumor growth by gentle palpation of the lateral left thorax in the general area of the injection.

HUVE cells [7] = assay: bFGF-induced proliferation of HUVE cells, aminoglycoside antibiotics; type: cell-based, human; settings: aminoglycoside 100 μM
Experimental: HUVE cells were seeded at 4×10^3 cells/cm^2 in attachment factor (Cell Systems Corp.)-coated 35 mm dishes in HE-SFM, and incubated with 1 μg/ml angiogenin in the presence or absence of inhibitors at 37° C. for 48 hr. Cell were detached by trypsinization and cell numbers were determined with a Coulter counter.
The ability of the other members of the aminoglycoside antibiotic family to inhibit bFGF-induced proliferation of HUVE cells was examined in a similar manner as for angiogenin as described in Section 6.1.1.5, above. HUVE cells, passage 9, were seeded on attachment-factor coated dishes at 50,000 cells per 35 mm dish in HE-SFM. Aminoglycoside antibiotics were added and the cells were incubated with or without […] at 37° C. for 48 hr.

[8] = tested on: chorioallantoic membrane (CAM) of chick embryos; assay: CAM assay, bFGF-induced angiogenesis; type: in vivo; settings: for % Positive: bFGF alone 78, water 21
Experimental: as §1

HUVE cells [9] = assay: HUVE cell number with neomycin alone, no angiogenic factor; type: cell-based, human; settings: 48 hrs, 0 μM: 31400 ± 400
Experimental: as §2

[10] = tested on: nuclear translocation of aFGF in HUVE cells; assay: Nuclear translocation of 125I-aFGF in HUVE cells; type: cell-based, human; settings: for aFGF Counts (nuclear fraction): 125I-aFGF 50 ng/ml, 0 μM: 7800 ± 100
Experimental: (§3) Inhibition of nuclear translocation of angiogenic factors in HUVE cells was performed in the following manner. […] The cell pellet was washed once with PBS and lysed with 0.5% triton X-100 in PBS. […] Radioactivity in the nuclear fraction was determined with a gamma counter.

HUVE cells [11] = assay: aFGF-induced proliferation of HUVE cells; type: cell-based, human; settings: for aFGF Cell No.: aFGF 10 ng/ml, 48 hrs, 0 μM: 73900 ± 2500
Experimental: as §2

[12] = tested on: nuclear translocation of EGF in HUVE cells; assay: Nuclear translocation of 125I-EGF in HUVE cells; type: cell-based, human; settings: for EGF Counts (nuclear fraction): 125I-EGF 50 ng/ml, 0 μM: 140 ± 20
Experimental: as §3

neomycin
ribonucleolytic activity of angiogenin, % of control (Human angiogenin; neomycin 5 μM): 87% | ribonucleolytic activity of angiogenin, % of control (Human angiogenin; neomycin 10 μM): 105% | ribonucleolytic activity of angiogenin, % of control (Human angiogenin; neomycin 50 μM): 88% | dose that abolishes the angiogenic activity of angiogenin ([1]; angiogenin 10 ng): 20 ng per egg | % Positive (angiogenic response) ([1]; angiogenin 10 ng + neomycin 4 ng): 40% | % Positive (angiogenic response) ([1]; angiogenin 10 ng + neomycin 20 ng): 20% | % Positive (angiogenic response) ([1]; angiogenin 10 ng + neomycin 200 ng): 25% | induction of angiogenesis by neomycin itself ([2]; about 5 to about 50 μM (20 to 200 ng in 5 μl)): does not induce angiogenesis | Positive eggs ([2]; neomycin 20 ng alone, 50 total eggs): 10 | % Positive ([2]; neomycin 20 ng alone, water 20-21): 20% | Positive eggs ([2]; neomycin 200 ng alone, 29 total eggs): 6 | % Positive ([2]; neomycin 200 ng alone, water 20-21): 21% | Positive eggs ([2]; neomycin 1000 ng alone, 13 total eggs): 3 | % Positive ([2]; neomycin 1000 ng alone, water 21): 23% | % Inhibition of angiogenic activity ([3]; aFGF 10 ng + neomycin 20 ng): 71% | Positive eggs ([3]; aFGF 10 ng + neomycin 20 ng, 14 total eggs): 5 | % Positive ([3]; aFGF 10 ng + neomycin 20 ng): 36% | % Inhibition of angiogenic activity ([3]; aFGF 10 ng + neomycin 200 ng): 75% | Positive eggs ([3]; aFGF 10 ng + neomycin 200 ng, 47 total eggs): 16 | % Positive ([3]; aFGF 10 ng + neomycin 200 ng): 32% and 34% | dosage that inhibited aFGF-induced angiogenesis ([3]; in vivo): about 200 ng per embryo | VEGF Inhib. % of cell proliferation (HUVE cells [4]; neomycin 25 μM): 14% | VEGF Cell No. (HUVE cells [4]; neomycin 25 μM): 41000 ± 300 | VEGF Inhib. % of cell proliferation (HUVE cells [4]; neomycin 50 μM): 20% | VEGF Cell No. (HUVE cells [4]; neomycin 50 μM): 38900 ± 1300 | VEGF Inhib. % of cell proliferation (HUVE cells [4]; neomycin 100 μM): 22% | VEGF Cell No. (HUVE cells [4]; neomycin 100 μM): 36400 ± 400 | VEGF Inhib. % of cell proliferation (HUVE cells [4]; neomycin 150 μM): 36% | VEGF Cell No. (HUVE cells [4]; neomycin 150 μM): 35000 ± 200 | VEGF Inhib. % of cell proliferation (HUVE cells [4]; neomycin 200 μM): 34% | VEGF Cell No. (HUVE cells [4]; neomycin 200 μM): 33800 ± 200 | mice in which appearance of PC-3 tumors was prevented ([5]; 20 mg/kg body weight s.c., 6 times per week 20 days, then 4 times per week 30 days, 6 mice): 50% | tumor status of treated mice by day 18 ([5]; 20 mg/kg s.c., control 2 of 6 with tumor): all of the mice in the neomycin-treated group remained tumor-free | animals that had developed tumors as of day 42 ([5]; 20 mg/kg s.c., control 100%): 50% | establishment of MDA-MB-435 human breast tumors ([6]; 60 mg/kg body weight i.p., daily 20 days, then 4 times per week 42 days, 8 mice): completely inhibited the establishment | mice with tumors by day 56 ([6]; 60 mg/kg i.p., all 8 control mice developed tumors): none of the mice had tumors | % Inhibition of bFGF-induced cell proliferation (HUVE cells [7]; bFGF 10 ng/ml): 71% | bFGF (10 ng/ml) Cell Numbers (HUVE cells [7]; bFGF 10 ng/ml, 48 hr, control 99000 ± 1000): 68400 ± 800 | Control (cell number without bFGF) (HUVE cells [7]; no bFGF, 48 hr, control 61300 ± 500): 58000 ± 1500 | % Inhibition of angiogenic activity ([8]; bFGF 10 ng + neomycin 20 ng): 58% | Positive eggs ([8]; bFGF 10 ng + neomycin 20 ng, 33 total eggs): 15 | % Positive ([8]; bFGF 10 ng + neomycin 20 ng): 45% | % Inhibition of angiogenic activity ([8]; bFGF 10 ng + neomycin 200 ng): 81% | Positive eggs ([8]; bFGF 10 ng + neomycin 200 ng, 38 total eggs): 12 | % Positive ([8]; bFGF 10 ng + neomycin 200 ng): 34% and 32% | dosage that inhibited bFGF-induced angiogenesis ([8]; in vivo): about 200 ng per embryo | Control Cell No. (HUVE cells [9]; neomycin 25 μM): 29800 ± 300 | Control Cell No. (HUVE cells [9]; neomycin 50 μM): 28800 ± 1000 | Control Cell No. (HUVE cells [9]; neomycin 100 μM): 27900 ± 500 | Control Cell No. (HUVE cells [9]; neomycin 150 μM): 27400 ± 200 | Control Cell No. (HUVE cells [9]; neomycin 200 μM): 26300 ± 400 | aFGF % Inhib. of nuclear translocation ([10]; neomycin 10 μM): 15% | aFGF Counts (nuclear fraction) ([10]; neomycin 10 μM): 6600 ± 100 cpm | aFGF % Inhib. of nuclear translocation ([10]; neomycin 50 μM): 26% | aFGF Counts (nuclear fraction) ([10]; neomycin 50 μM): 5800 ± 100 cpm | aFGF % Inhib. of nuclear translocation ([10]; neomycin 100 μM): 32% | aFGF Counts (nuclear fraction) ([10]; neomycin 100 μM): 5300 ± 100 cpm | aFGF % Inhib. of nuclear translocation ([10]; neomycin 150 μM): 38% | aFGF Counts (nuclear fraction) ([10]; neomycin 150 μM): 4800 ± 100 cpm | aFGF % Inhib. of nuclear translocation ([10]; neomycin 200 μM): 43% | aFGF Counts (nuclear fraction) ([10]; neomycin 200 μM): 4500 ± 200 cpm | aFGF Inhib. % of cell proliferation (HUVE cells [11]; neomycin 25 μM): 25% | aFGF Cell No. (HUVE cells [11]; neomycin 25 μM): 60000 ± 400 | aFGF Inhib. % of cell proliferation (HUVE cells [11]; neomycin 50 μM): 42% | aFGF Cell No. (HUVE cells [11]; neomycin 50 μM): 51300 ± 400 | aFGF Inhib. % of cell proliferation (HUVE cells [11]; neomycin 100 μM): 50% | aFGF Cell No. (HUVE cells [11]; neomycin 100 μM): 46700 ± 800 | aFGF Inhib. % of cell proliferation (HUVE cells [11]; neomycin 150 μM): 63% | aFGF Cell No. (HUVE cells [11]; neomycin 150 μM): 41000 ± 1000 | aFGF Inhib. % of cell proliferation (HUVE cells [11]; neomycin 200 μM): 68% | aFGF Cell No. (HUVE cells [11]; neomycin 200 μM): 37500 ± 200 | IC50 (HUVE cells [11]; read-out: IC50, aFGF-induced proliferation of endothelial cells): ~100 µM | EGF % Inhib. of nuclear translocation ([12]; neomycin 10 μM): 0% | EGF Counts (nuclear fraction) ([12]; neomycin 10 μM): 140 ± 20 cpm | EGF % Inhib. of nuclear translocation ([12]; neomycin 50 μM): 0% | EGF Counts (nuclear fraction) ([12]; neomycin 50 μM): 140 ± 20 cpm | EGF % Inhib. of nuclear translocation ([12]; neomycin 100 μM): 7% | EGF Counts (nuclear fraction) ([12]; neomycin 100 μM): 130 ± 30 cpm | EGF % Inhib. of nuclear translocation ([12]; neomycin 150 μM): 14% | EGF Counts (nuclear fraction) ([12]; neomycin 150 μM): 120 ± 10 cpm | EGF % Inhib. of nuclear translocation ([12]; neomycin 200 μM): 29% | EGF Counts (nuclear fraction) ([12]; neomycin 200 μM): 100 ± 20 cpm
